Assay results reported in paper PMC5761078 (Cell reports, 2018).
Blank lines part the entries; values can stand above or below the compound they belong to.

How the values were obtained:
A1R = target: T1, A1R (Mus musculus, UniProt Q60612); assay: TEpacVV FRET imaging of cAMP in primary neurons; format: cell-based; settings: agonist, cAMP decrease, bath application
T1 sequence (Q60612 1-326): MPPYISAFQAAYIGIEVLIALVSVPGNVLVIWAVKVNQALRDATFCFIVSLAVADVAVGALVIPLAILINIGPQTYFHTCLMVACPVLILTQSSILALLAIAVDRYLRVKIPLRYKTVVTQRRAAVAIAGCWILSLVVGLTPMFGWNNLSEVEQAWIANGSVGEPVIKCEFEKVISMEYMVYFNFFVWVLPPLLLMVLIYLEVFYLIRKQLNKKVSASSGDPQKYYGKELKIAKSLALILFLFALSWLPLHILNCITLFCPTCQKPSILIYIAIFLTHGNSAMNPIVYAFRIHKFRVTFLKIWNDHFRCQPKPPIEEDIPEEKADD

[1] = target: D1 dopamine receptor (D1R) (Mus musculus, UniProt Q61616); settings: agonist, cAMP increase; dMSN cell body; bath application
Sequence of D1 dopamine receptor (D1R) (Q61616 whole entry): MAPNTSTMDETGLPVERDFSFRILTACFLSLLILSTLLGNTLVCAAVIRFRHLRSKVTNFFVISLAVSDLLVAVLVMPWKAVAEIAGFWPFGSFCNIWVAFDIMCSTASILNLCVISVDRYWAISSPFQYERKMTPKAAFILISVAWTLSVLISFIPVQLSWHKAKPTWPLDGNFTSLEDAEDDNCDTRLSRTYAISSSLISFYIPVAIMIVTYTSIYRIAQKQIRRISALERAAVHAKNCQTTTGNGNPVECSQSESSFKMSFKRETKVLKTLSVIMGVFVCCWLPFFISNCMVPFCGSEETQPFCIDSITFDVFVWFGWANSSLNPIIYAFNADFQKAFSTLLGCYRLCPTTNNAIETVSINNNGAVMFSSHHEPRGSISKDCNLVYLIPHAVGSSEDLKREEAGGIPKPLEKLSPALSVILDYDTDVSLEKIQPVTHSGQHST

EC50 (A1R; dMSN): 14.6 ± 4.1 nM
Compound: C[C@@]1(O)[C@H](O)[C@@H](CO)O[C@H]1n1cnc2c(NC3CCCC3)nc(Cl)nc21 [2′MeCCPA]

EC50 (A1R; dMSN cell body): 112 ± 34 nM
Compound: Nc1ncnc2c1ncn2[C@@H]1O[C@H](CO)[C@@H](O)[C@H]1O [adenosine]

EC50 [1]: 76.5 ± 13.9 nM
Compound: NCCc1ccc(O)c(O)c1 [dopamine]
